BindingDB's records for doi:10.1016/j.ejmech.2021.113317 (Universities of Shandong, 2021)

Columns and labels:
[1] = Reversal of MRP2-mediated multidrug resistance in human KBV cells assessed as cisplatin IC50 at 10 uM after 72 hrs in presence of cisplatin by MTT assay (Rvb = 4902.89 +/- 130.33 nM)
[2] = Reversal of MRP2-mediated multidrug resistance in human KBV cells assessed as cisplatin IC50 at 5 uM after 72 hrs in presence of cisplatin by MTT assay (Rvb = 4902.89 +/- 130.33 nM)
[3] = Reversal of BCRP-mediated multidrug resistance in human KBV cells assessed as mitoxantrone IC50 at 10 uM after 72 hrs in presence of mitoxantrone by MTT assay (Rvb = 1186.50 +/- 29.24 nM)
[4] = Reversal of BCRP-mediated multidrug resistance in human KBV cells assessed as mitoxantrone IC50 at 5 uM after 72 hrs in presence of mitoxantrone by MTT assay (Rvb = 1186.50 +/- 29.24 nM)

Structure (SMILES) | IC50 [1] [nM] | IC50 [2] [nM] | IC50 [3] [nM] | IC50 [4] [nM]
CSCC[C@H](NC(=O)OC(C)(C)C)C(=O)O[C@H]1CC[C@]2(C)[C@H]3C[C@@H](O)[C@@H]4[C@@H]([C@]5(C)CC[C@@H](C(C)(C)O)O5)CC[C@@]4(C)[C@]3(C)CC[C@H]2C1(C)C | > 5000 | > 5000 | 1010 | 1460
CSCC[C@H](NC(=O)OC(C)(C)C)C(=O)O[C@H]1CC[C@]2(C)[C@H]3C[C@@H](O)[C@@H]4[C@@H]([C@]5(C)CC[C@H](C(C)(C)O)O5)CC[C@@]4(C)[C@]3(C)CC[C@H]2C1(C)C | > 5000 | > 5000 | 748 | 843
COc1ccc(CCN(C)CCCC(C#N)(c2ccc(OC)c(OC)c2)C(C)C)cc1OC (centres undefined) [NSC_62969] | > 5000 |  |  | 
